Holding throughout (format): in vivo
In series [1] the test system is Alopecurus myosuroides (ALOMY). The series is described as follows: Glasshouse assay for herbicidal activity (pre- and post-emergence), percentage phytotoxicity. Particulars: Alopecurus myosuroides, Rate 250 g/ha, 100%=total damage, 0%=no damage. The method in brief: (§1)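 Damage was rated visually as percent phytotoxicity, 100% meaning total kill, 20 days after pre-emergence application (made one day post-sowing) or 15 days after post-emergence application (made about 12 days post-sowing). Plants were grown under 16 h light, 65% humidity, warm species 24/18° C, cool 20/16° C.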

Another series concerns Avena fatua (AVEFA). Described as above. Conditions: Avena fatua, Rate 250 g/ha, 100%=total damage, 0%=no damage. In short, it runs like this: as §1
In series [2] the test system is Echinochloa crus-galli (ECHCG). Described as above. Particulars: Echinochloa crus-galli, Rate 250 g/ha, 100%=total damage, 0%=no damage. In short, it runs like this: as §1
Another series has as its system Lolium perenne (LOLPE). The series is described as above. Particulars: Lolium perenne, Rate 250 g/ha, 100%=total damage, 0%=no damage. The method in brief: as §1
Series [3] deals with Winter Wheat variety 'Hereward'. The series is described as follows: Glasshouse assay for crop safety, post-emergence, +/- safener cloquintocet-mexyl (CQC), percentage phytotoxicity. Conditions: 250 g/ha, evaluated after 13 days, 100=total damage, 0=no damage; for Post-emergence Crop Selectivity, percentage phytotoxicity, Wheat +CQC: with safener cloquintocet-mexyl (CQC) seed treatment 0.5 g/kg seed; for Post-emergence Crop Selectivity, percentage phytotoxicity, Wheat − CQC: without safener cloquintocet-mexyl (CQC). The text has this:
Test—Glasshouse Assay for Crop Safety.
Seeds of the Winter Wheat variety ‘Hereward’ were seed treated with a wettable powder formulation of the cereal herbicide safener, cloquintocet mexyl, at a rate of 0.5 grams per kilogram of dry seed prior to the initiation of glasshouse testing. Three seeds were sown per 1.5 inch plastic pot into a sandy loam soil at a depth of 1 cm, 8 days prior to application of the test compounds and was watered and grown under controlled conditions in a glasshouse (at 24/16° C., day/night; 14 hours light; 65% humidity). The plants were sprayed Post-emergence with an aqueous spray solution derived from the formulation of the technical active ingredient in acetone/water (50:50) solution containing 0.5% Tween 20 (polyoxyethelyene sorbitan monolaurate, CAS RN 9005-64-5).
The test plants were then grown in a glasshouse under controlled conditions (at 24/16° C., day/night; 14 hours light; 65% humidity) and watered twice daily. After 13 days for pre and post-emergence, the test was evaluated (100=total damage to plant; 0=no damage to plant).

Setting [4] is: post-emergence, 360 h, post-emergence, assessed visually 15 DAA, read-out: Post-emergence herbicidal activity (percentage phytotoxicity) ALOMY POST.
Where [5] appears, read: pre-emergence, 480 h, pre-emergence, assessed visually 20 DAA, read-out: Pre-emergence herbicidal activity (percentage phytotoxicity) ALOMY PRE.
The mark [6] stands for this setting: post-emergence, 360 h, post-emergence, assessed visually 15 DAA, read-out: Post-emergence herbicidal activity (percentage phytotoxicity) AVEFA POST.
[7] abbreviates: pre-emergence, 480 h, pre-emergence, assessed visually 20 DAA, read-out: Pre-emergence herbicidal activity (percentage phytotoxicity) AVEFA PRE.
Setting [8] is: post-emergence, 360 h, post-emergence, assessed visually 15 DAA, read-out: Post-emergence herbicidal activity (percentage phytotoxicity) ECHCG POST.
Where [9] appears, read: pre-emergence, 480 h, pre-emergence, assessed visually 20 DAA, read-out: Pre-emergence herbicidal activity (percentage phytotoxicity) ECHCG PRE.
The mark [10] stands for this setting: post-emergence, 360 h, post-emergence, assessed visually 15 DAA, read-out: Post-emergence herbicidal activity (percentage phytotoxicity) LOLPE POST.
Where [11] appears, read: pre-emergence, 480 h, pre-emergence, assessed visually 20 DAA, read-out: Pre-emergence herbicidal activity (percentage phytotoxicity) LOLPE PRE.

Molecules are shown by their SMILES. Like-named read-outs stand apart in the source and are kept apart here.

On to `Cc1cc(C)c(C2C(=O)CC(CC(=O)NCCc3ccccc3)C2=O)c(C)c1` (centres unmarked) [Compound A1, 2-[2,4-dioxo-3-(2,4,6-trimethylphenyl)cyclopentyl]-N-phenethyl-acetamide], for which the pest or weed control at 250 g/ha in series [1] (setting [4]) is 60%; in series [1] (setting [5]) it was 60%; in the series on Avena fatua (AVEFA) (setting [6]) it was 60%; in the series with Avena fatua (AVEFA) (setting [7]), 60%; in series [2] (setting [8]), 80%; in series [2] (setting [9]), 90%. Also, the pest or weed control at 250 g/ha with Lolium perenne (LOLPE) (setting [10]) came out at 80%; with Lolium perenne (LOLPE) (setting [11]) it was 100%. Besides, the “Post-emergence Crop Selectivity, percentage phytotoxicity, Wheat +CQC” value in series [3] was 0%. Moreover, in series [3], the “Post-emergence Crop Selectivity, percentage phytotoxicity, Wheat − CQC” value is given as 60%.
Regarding `Cc1cc(C)c(C2C(=O)CC(CC(=O)NC(C)(C)C)C2=O)c(C)c1` (centres unmarked) [Compound A2, N-tert-butyl-2-[2,4-dioxo-3-(2,4,6-trimethylphenyl)cyclopentyl]-acetamide], the pest or weed control at 250 g/ha in series [1] (setting [4]) was 80%; in series [1] (setting [5]), 80%; with Avena fatua (AVEFA) (setting [6]), 70%; in the series with Avena fatua (AVEFA) (setting [7]) it was 10%; in series [2] (setting [8]) it was 50%; in series [2] (setting [9]) it was 70%. The pest or weed control at 250 g/ha in the series on Lolium perenne (LOLPE) (setting [10]) and in the series with Lolium perenne (LOLPE) (setting [11]) was 80% throughout. Further, in series [3], the “Post-emergence Crop Selectivity, percentage phytotoxicity, Wheat +CQC” value came to 10%. In addition, in series [3], the “Post-emergence Crop Selectivity, percentage phytotoxicity, Wheat − CQC” value is 10%.
As to `CCC(C)NC(=O)CC1CC(=O)C(c2c(C)cc(C)cc2C)C1=O` (centres unmarked) [Compound A3], the pest or weed control at 250 g/ha was 90% in series [1] (setting [4]); 100% in series [1] (setting [5]); 90% in the series on Avena fatua (AVEFA) (setting [6]); 90% with Avena fatua (AVEFA) (setting [7]); 90% in series [2] (setting [8]); 100% in series [2] (setting [9]). Further, the pest or weed control at 250 g/ha was determined as 90% with Lolium perenne (LOLPE) (setting [10]) and 100% in the series on Lolium perenne (LOLPE) (setting [11]). Further, the “Post-emergence Crop Selectivity, percentage phytotoxicity, Wheat +CQC” value in series [3] is 10%. Besides, the “Post-emergence Crop Selectivity, percentage phytotoxicity, Wheat − CQC” value in series [3] was determined as 60%.
As for `Cc1cc(C)c(C2C(=O)CC(CC(=O)NCc3ccccc3)C2=O)c(C)c1` (centres unmarked) [Compound A4], the pest or weed control at 250 g/ha in series [1] (setting [4]) worked out at 50%; in series [1] (setting [5]), 50%; with Avena fatua (AVEFA) (setting [6]), 80%; in the series on Avena fatua (AVEFA) (setting [7]) it was 30%; in series [2] (setting [8]), 80%; in series [2] (setting [9]) it was 70%. The pest or weed control at 250 g/ha in the series with Lolium perenne (LOLPE) (setting [10]) was 90%; in the series with Lolium perenne (LOLPE) (setting [11]), 80%. The “Post-emergence Crop Selectivity, percentage phytotoxicity, Wheat +CQC” value in series [3] came to 10%. In addition, in series [3], the “Post-emergence Crop Selectivity, percentage phytotoxicity, Wheat − CQC” value is recorded as 60%.
Consider `Cc1cc(C)c(C2C(=O)CC(CC(=O)NCC(C)C)C2=O)c(C)c1` (centres unmarked) [Compound A5], for which the pest or weed control at 250 g/ha in series [1] (setting [4]) was 90%; in series [1] (setting [5]) it was 100%; in the series on Avena fatua (AVEFA) (setting [6]) it was 80%; with Avena fatua (AVEFA) (setting [7]), 70%; in series [2] (setting [8]), 80%; in series [2] (setting [9]), 100%. Further, the results for the pest or weed control at 250 g/ha in the series with Lolium perenne (LOLPE) (setting [10]) and in the series on Lolium perenne (LOLPE) (setting [11]) were 80% and 100%, respectively. Moreover, the “Post-emergence Crop Selectivity, percentage phytotoxicity, Wheat +CQC” value in series [3] stood at 10%. Moreover, in series [3], the “Post-emergence Crop Selectivity, percentage phytotoxicity, Wheat − CQC” value was found to be 80%.
`Cc1cc(C)c(C2C(=O)CC(CC(=O)NCc3cccs3)C2=O)c(C)c1` (centres unmarked) [Compound A6]: the pest or weed control at 250 g/ha stood at 90% in series [1] (setting [4]); 90% in series [1] (setting [5]); 90% with Avena fatua (AVEFA) (setting [6]); 60% in the series with Avena fatua (AVEFA) (setting [7]); 90% in series [2] (setting [8]); 100% in series [2] (setting [9]). Besides, the pest or weed control at 250 g/ha worked out at 90% in the series on Lolium perenne (LOLPE) (setting [10]) and 100% in the series on Lolium perenne (LOLPE) (setting [11]). In addition, the “Post-emergence Crop Selectivity, percentage phytotoxicity, Wheat +CQC” value in series [3] came to 10%. In addition, the “Post-emergence Crop Selectivity, percentage phytotoxicity, Wheat − CQC” value in series [3] is 70%.
For `Cc1cc(C)c(C2C(=O)CC(CC(=O)NC(C)C)C2=O)c(C)c1` (centres unmarked) [Compound A7], the pest or weed control at 250 g/ha was determined as 90% in series [1] (setting [4]); 80% in series [1] (setting [5]); 90% in the series on Avena fatua (AVEFA) (setting [6]); 60% in the series on Avena fatua (AVEFA) (setting [7]); 100% in series [2] (setting [8]); 90% in series [2] (setting [9]). The pest or weed control at 250 g/ha in the series on Lolium perenne (LOLPE) (setting [10]) and with Lolium perenne (LOLPE) (setting [11]) was 100% each time. For the same molecule, the “Post-emergence Crop Selectivity, percentage phytotoxicity, Wheat +CQC” value in series [3] is 20%. In series [3], the “Post-emergence Crop Selectivity, percentage phytotoxicity, Wheat − CQC” value is recorded as 30%.
For the molecule `CCCCNC(=O)CC1CC(=O)C(c2c(C)cc(C)cc2C)C1=O` (centres unmarked) [Compound A12], the pest or weed control at 250 g/ha in series [1] (setting [4]) turned out to be 100%; in series [1] (setting [5]), 90%; in the series with Avena fatua (AVEFA) (setting [6]) it was 80%; with Avena fatua (AVEFA) (setting [7]), 70%; in series [2] (setting [8]), 80%; in series [2] (setting [9]), 100%. Moreover, the pest or weed control at 250 g/ha with Lolium perenne (LOLPE) (setting [10]) worked out at 90%; in the series on Lolium perenne (LOLPE) (setting [11]) it was 100%. Also, in series [3], the “Post-emergence Crop Selectivity, percentage phytotoxicity, Wheat +CQC” value was determined as 0%. Further, the “Post-emergence Crop Selectivity, percentage phytotoxicity, Wheat − CQC” value in series [3] amounted to 70%.
On to `Cc1cc(C)c(C2C(=O)CC(CC(=O)NCC(C)(C)C)C2=O)c(C)c1` (centres unmarked) [Compound A14], for which the pest or weed control at 250 g/ha in series [1] (setting [4]) was determined as 80%; in series [1] (setting [5]) it was 90%; in the series on Avena fatua (AVEFA) (setting [6]) it was 70%; in the series on Avena fatua (AVEFA) (setting [7]), 70%; in series [2] (setting [8]), 80%; in series [2] (setting [9]), 100%. Moreover, the pest or weed control at 250 g/ha in the series on Lolium perenne (LOLPE) (setting [10]) and in the series with Lolium perenne (LOLPE) (setting [11]) was 80% each time. Also, the “Post-emergence Crop Selectivity, percentage phytotoxicity, Wheat +CQC” value in series [3] amounted to 10%. The “Post-emergence Crop Selectivity, percentage phytotoxicity, Wheat − CQC” value in series [3] was 60%.
In the case of `Cc1cc(C)c(C2=C(OC(=O)C(C)(C)C)CC(CC(=O)NC3(C)COC3)C2=O)c(C)c1` (centres unmarked) [Compound P15], the pest or weed control at 250 g/ha in series [1] (post-emergence, 360 h, post-emergence, visual assessment 15 DAA, read-out: Post-emergence herbicidal activity (percentage phytotoxicity) ALOMY POST) worked out at 90%; in series [1] (pre-emergence, 480 h, pre-emergence, visual assessment 20 DAA, read-out: Pre-emergence herbicidal activity (percentage phytotoxicity) ALOMY PRE), 70%; in the series on Avena fatua (AVEFA) (post-emergence, 360 h, post-emergence, visual assessment 15 DAA, read-out: Post-emergence herbicidal activity (percentage phytotoxicity) AVEFA POST), 80%; with Avena fatua (AVEFA) (pre-emergence, 480 h, pre-emergence, visual assessment 20 DAA, read-out: Pre-emergence herbicidal activity (percentage phytotoxicity) AVEFA PRE) it was 40%; in series [2] (post-emergence, 360 h, post-emergence, visual assessment 15 DAA, read-out: Post-emergence herbicidal activity (percentage phytotoxicity) ECHCG POST) it was 80%; in series [2] (pre-emergence, 480 h, pre-emergence, visual assessment 20 DAA, read-out: Pre-emergence herbicidal activity (percentage phytotoxicity) ECHCG PRE) it was 100%. Further, the pest or weed control at 250 g/ha in the series on Lolium perenne (LOLPE) (post-emergence, 360 h, post-emergence, visual assessment 15 DAA, read-out: Post-emergence herbicidal activity (percentage phytotoxicity) LOLPE POST) amounted to 80%; with Lolium perenne (LOLPE) (pre-emergence, 480 h, pre-emergence, visual assessment 20 DAA, read-out: Pre-emergence herbicidal activity (percentage phytotoxicity) LOLPE PRE), 80%.
